Measured values reported in patent US4156724A, “N-acylamino-alpha-arylacetamido cephalosporins and antibacterial compositions and methods containing them” (Sumitomo Chemical Company, Limited, priority 1974, dated 1979).
≈ marks a conversion by molar mass, not a printed value.

Tests used:
Format in all cases: cell-based
[1] = tested on: Klebsiella pneumoniae 602; test: Minimum Inhibitory Concentration, Klebsiella pneumoniae 602; conditions: for MIC: Klebsiella pneumoniae, 602, Klebsiella pneumoniae 602, read-out: Minimum Inhibitory Concentration; for Minimum Inhibitory Concentration: Klebsiella pneumoniae 602
Description: (§1) anti-microbial activity tests were carried out on the compounds obtained in the Examples.

[2] = tested on: Staphylococcus aureus 209 P; test: Minimum Inhibitory Concentration, Staphylococcus aureus 209 P; conditions: Staphylococcus aureus 209 P; for MIC: read-out: Minimum Inhibitory Concentration
Description: as §1

[3] = tested on: Pseudomonas aeruginosa 104; test: Minimum Inhibitory Concentration, Pseudomonas aeruginosa 104; conditions: Pseudomonas aeruginosa 104; for MIC: read-out: Minimum Inhibitory Concentration
Description: as §1

[4] = tested on: Enterobacter aerogeneus No. 75; test: Minimum Inhibitory Concentration, Enterobacter aerogeneus No. 75; conditions: Enterobacter aerogeneus No. 75; for MIC: read-out: Minimum Inhibitory Concentration
Description: as §1

[5] = tested on: Staphylococcus aureus FS 289; test: Minimum Inhibitory Concentration, Staphylococcus aureus FS 289; conditions: Staphylococcus aureus FS 289, strain resistant to penicillin; for MIC: FS289, read-out: Minimum Inhibitory Concentration
Description: as §1
*Staphylococcus aureus FS 289: strain resistant to penicillin

Proteus vulgaris HX 19 = test: Minimum Inhibitory Concentration, Proteus vulgaris HX 19; conditions: Proteus vulgaris HX 19; for MIC: HX19, read-out: Minimum Inhibitory Concentration
Description: as §1

Escherichia coli NIHJ = test: Minimum Inhibitory Concentration, Escherichia coli NIHJ; conditions: Escherichia coli NIHJ; for MIC: read-out: Minimum Inhibitory Concentration
Description: as §1

Serratia No. 72 = test: Minimum Inhibitory Concentration, Serratia No. 72
Description: as §1

SMILES	MIC [1]	MIC [2]	MIC [3]	MIC [4]	MIC [5]	MIC (Proteus vulgaris HX 19)	MIC (Escherichia coli NIHJ)	MIC (Serratia No. 72)	Minimum Inhibitory Concentration [1]	Minimum Inhibitory Concentration [2]	Minimum Inhibitory Concentration [3]	Minimum Inhibitory Concentration [4]	Minimum Inhibitory Concentration [5]	Minimum Inhibitory Concentration (Proteus vulgaris HX 19)	Minimum Inhibitory Concentration (Escherichia coli NIHJ)	Minimum Inhibitory Concentration (Serratia No. 72)
Cn1nnc(SCC2=C(C(=O)O)N3C(=O)C(NC(=O)[C@H](NC(=O)c4cnc5cccnc5c4O)c4ccc(O)cc4)C3SC2)n1 (some centres unmarked) [Example 133]	1.56 µg/mL (≈ 2.4 µM)	0.78 µg/mL (≈ 1.2 µM)	3.13 µg/mL (≈ 4.82 µM)	3.13 µg/mL (≈ 4.82 µM)	3.13 µg/mL (≈ 4.82 µM)	0.1 µg/mL (≈ 0.154 µM)	3.13 µg/mL (≈ 4.82 µM)	25 µg/mL (≈ 38.5 µM)	–	–	–	–	–	–	–	–
CC(=O)OCC1=C(C(=O)[O-])N2C(=O)C(NC(=O)C(NC(=O)c3cnc4nc(C)cnc4c3O)c3ccc(O)cc3)C2SC1.[Na+] (centres unmarked) [Example 136]	–	–	–	–	–	–	–	–	3.13 µg/mL	0.78 µg/mL	6.25 µg/mL	6.25 µg/mL	6.25 µg/mL	0.78 µg/mL	3.13 µg/mL	100 µg/mL
CSc1ncc2c(O)c(C(=O)NC(C(=O)NC3C(=O)N4C(C(=O)[O-])=C(COC(C)=O)CSC34)c3ccc(O)cc3)cnc2n1.[Na+] (centres unmarked) [Example 137]	–	–	–	–	–	–	–	–	12.5 µg/mL	1.56 µg/mL	12.5 µg/mL	50 µg/mL	12.5 µg/mL	1.56 µg/mL	12.5 µg/mL	100 µg/mL
CC(=O)OCC1=C(C(=O)[O-])N2C(=O)C(NC(=O)C(NC(=O)c3cnc4cccnc4c3O)c3cccc(O)c3)C2SC1.[Na+] (centres unmarked) [Example 138]	–	–	–	–	–	–	–	–	1.56 µg/mL	0.78 µg/mL	6.25 µg/mL	6.25 µg/mL	6.25 µg/mL	0.78 µg/mL	3.13 µg/mL	50 µg/mL
CC(=O)OCC1=C(C(=O)[O-])N2C(=O)C(NC(=O)C(NC(=O)c3cnc4ncncc4c3O)c3ccc(O)cc3)C2SC1.[Na+] (centres unmarked) [Example 139]	–	–	–	–	–	–	–	–	6.25 µg/mL	1.56 µg/mL	12.5 µg/mL	50 µg/mL	12.5 µg/mL	3.13 µg/mL	12.5 µg/mL	50 µg/mL
CSc1cnc2c(O)c(C(=O)NC(C(=O)NC3C(=O)N4C(C(=O)[O-])=C(COC(C)=O)CSC34)c3cccc(O)c3)cnc2n1.[Na+] (centres unmarked) [Example 140]	–	–	–	–	–	–	–	–	6.25 µg/mL	0.78 µg/mL	6.25 µg/mL	12.5 µg/mL	6.25 µg/mL	1.56 µg/mL	3.13 µg/mL	50 µg/mL
CC(=O)OCC1=C(C(=O)[O-])N2C(=O)C(NC(=O)C(NC(=O)c3cnc4cncnc4c3O)c3ccc(O)cc3)C2SC1.[Na+] (centres unmarked) [Example 141]	–	–	–	–	–	–	–	–	6.25 µg/mL	0.78 µg/mL	6.25 µg/mL	12.5 µg/mL	6.25 µg/mL	0.78 µg/mL	6.25 µg/mL	50 µg/mL
CC(=O)OCC1=C(C(=O)[O-])N2C(=O)C(NC(=O)C(NC(=O)c3cnc4cccnc4c3O)c3ccc(O)c(O)c3)C2SC1.[Na+] (centres unmarked) [Example 142]	–	–	–	–	–	–	–	–	3.13 µg/mL	1.56 µg/mL	6.25 µg/mL	6.25 µg/mL	6.25 µg/mL	0.78 µg/mL	3.13 µg/mL	50 µg/mL
COc1cc(C(NC(=O)c2cnc3cccnc3c2O)C(=O)NC2C(=O)N3C(C(=O)[O-])=C(COC(C)=O)CSC23)ccc1O.[Na+] (centres unmarked) [Example 143]	–	–	–	–	–	–	–	–	3.13 µg/mL	3.13 µg/mL	6.25 µg/mL	12.5 µg/mL	12.5 µg/mL	0.78 µg/mL	6.25 µg/mL	100 µg/mL
CC(=O)OCC1=C(C(=O)[O-])N2C(=O)C(NC(=O)C(NC(=O)c3cnc4cccnc4c3O)c3cc(Cl)c(O)c(Cl)c3)C2SC1.[Na+] (centres unmarked) [Example 144]	–	–	–	–	–	–	–	–	6.25 µg/mL	3.13 µg/mL	6.25 µg/mL	12.5 µg/mL	12.5 µg/mL	1.56 µg/mL	6.25 µg/mL	100 µg/mL
CC(=O)OCC1=C(C(=O)[O-])N2C(=O)C(NC(=O)C(NC(=O)c3cnc4cccnc4c3O)c3ccc(O)c(F)c3)C2SC1.[Na+] (centres unmarked) [Example 145]	–	–	–	–	–	–	–	–	3.13 µg/mL	0.78 µg/mL	6.25 µg/mL	12.5 µg/mL	6.25 µg/mL	0.39 µg/mL	3.13 µg/mL	100 µg/mL

Second part, led by results:

MIC [1]	MIC [2]	MIC [3]	MIC [4]	MIC [5]	MIC (Proteus vulgaris HX 19)	MIC (Escherichia coli NIHJ)	MIC (Serratia No. 72)	SMILES	Minimum Inhibitory Concentration [1]	Minimum Inhibitory Concentration [2]	Minimum Inhibitory Concentration [3]	Minimum Inhibitory Concentration [4]	Minimum Inhibitory Concentration [5]	Minimum Inhibitory Concentration (Proteus vulgaris HX 19)	Minimum Inhibitory Concentration (Escherichia coli NIHJ)	Minimum Inhibitory Concentration (Serratia No. 72)
1.56 µg/mL (≈ 2.46 µM)	0.78 µg/mL (≈ 1.23 µM)	3.13 µg/mL (≈ 4.93 µM)	3.13 µg/mL (≈ 4.93 µM)	3.13 µg/mL (≈ 4.93 µM)	0.1 µg/mL (≈ 0.158 µM)	3.13 µg/mL (≈ 4.93 µM)	25 µg/mL (≈ 39.4 µM)	O=C(O)C1=C(CSc2cnn[nH]2)CSC2C(NC(=O)[C@H](NC(=O)c3cnc4cccnc4c3O)c3ccc(O)cc3)C(=O)N12 (some centres unmarked) [Example 134]	–	–	–	–	–	–	–	–
3.13 µg/mL (≈ 4.49 µM)	0.78 µg/mL (≈ 1.12 µM)	3.13 µg/mL (≈ 4.49 µM)	6.25 µg/mL (≈ 8.97 µM)	12.5 µg/mL (≈ 17.9 µM)	1.56 µg/mL (≈ 2.24 µM)	1.56 µg/mL (≈ 2.24 µM)	25 µg/mL (≈ 35.9 µM)	CSc1cnc2c(O)c(C(=O)N[C@@H](C(=O)NC3C(=O)N4C(C(=O)O)=C(CSc5nnnn5C)CSC34)c3ccc(O)cc3)cnc2n1 (some centres unmarked) [Example 146]	–	–	–	–	–	–	–	–
3.13 µg/mL (≈ 4.35 µM)	1.56 µg/mL (≈ 2.17 µM)	3.13 µg/mL (≈ 4.35 µM)	6.25 µg/mL (≈ 8.68 µM)	12.5 µg/mL (≈ 17.4 µM)	1.56 µg/mL (≈ 2.17 µM)	3.13 µg/mL (≈ 4.35 µM)	25 µg/mL (≈ 34.7 µM)	Cn1nnnc1SCC1=C(C(=O)O)N2C(=O)C(NC(=O)[C@H](NC(=O)c3cnc4nc(N5CCCC5)cnc4c3O)c3ccc(O)cc3)C2SC1 (some centres unmarked) [Example 147]	–	–	–	–	–	–	–	–
3.13 µg/mL (≈ 4.51 µM)	1.56 µg/mL (≈ 2.25 µM)	3.13 µg/mL (≈ 4.51 µM)	6.25 µg/mL (≈ 9 µM)	12.5 µg/mL (≈ 18 µM)	1.56 µg/mL (≈ 2.25 µM)	3.13 µg/mL (≈ 4.51 µM)	25 µg/mL (≈ 36 µM)	Cc1nnc(SCC2=C(C(=O)O)N3C(=O)C(NC(=O)[C@H](NC(=O)c4cnc5nc(C)c(C)nc5c4O)c4ccc(O)cc4)C3SC2)s1 (some centres unmarked) [Example 148]	–	–	–	–	–	–	–	–
3.13 µg/mL (≈ 4.5 µM)	0.78 µg/mL (≈ 1.12 µM)	6.25 µg/mL (≈ 8.98 µM)	6.25 µg/mL (≈ 8.98 µM)	6.25 µg/mL (≈ 8.98 µM)	0.39 µg/mL (≈ 0.56 µM)	3.13 µg/mL (≈ 4.5 µM)	25 µg/mL (≈ 35.9 µM)	O=C(O)C1=C(CSc2ccc(O)nn2)CSC2C(NC(=O)[C@H](NC(=O)c3cnc4cccnc4c3O)c3ccc(O)c(Cl)c3)C(=O)N12 (some centres unmarked) [Example 149]	–	–	–	–	–	–	–	–
1.56 µg/mL (≈ 2.29 µM)	0.78 µg/mL (≈ 1.14 µM)	3.13 µg/mL (≈ 4.59 µM)	6.25 µg/mL (≈ 9.17 µM)	6.25 µg/mL (≈ 9.17 µM)	0.2 µg/mL (≈ 0.293 µM)	3.13 µg/mL (≈ 4.59 µM)	12.5 µg/mL (≈ 18.3 µM)	O=C(O)C1=C(CSc2nnc(CO)s2)CSC2C(NC(=O)[C@H](NC(=O)c3cnc4cccnc4c3O)c3ccc(O)cc3)C(=O)N12 (some centres unmarked) [Example 150]	–	–	–	–	–	–	–	–
1.56 µg/mL (≈ 2.14 µM)	0.78 µg/mL (≈ 1.07 µM)	6.25 µg/mL (≈ 8.58 µM)	6.25 µg/mL (≈ 8.58 µM)	6.25 µg/mL (≈ 8.58 µM)	0.39 µg/mL (≈ 0.535 µM)	1.56 µg/mL (≈ 2.14 µM)	12.5 µg/mL (≈ 17.2 µM)	CN(C)c1ccc2ncc(C(=O)N[C@@H](C(=O)NC3C(=O)N4C(C(=O)O)=C(CSc5n[nH]c(=O)s5)CSC34)c3ccc(O)c(F)c3)c(O)c2n1 (some centres unmarked) [Example 151]	–	–	–	–	–	–	–	–
1.56 µg/mL (≈ 2.29 µM)	0.78 µg/mL (≈ 1.15 µM)	3.13 µg/mL (≈ 4.6 µM)	6.25 µg/mL (≈ 9.18 µM)	6.25 µg/mL (≈ 9.18 µM)	0.2 µg/mL (≈ 0.294 µM)	3.13 µg/mL (≈ 4.6 µM)	12.5 µg/mL (≈ 18.4 µM)	CNc1nnc(SCC2=C(C(=O)O)N3C(=O)C(NC(=O)[C@H](NC(=O)c4cnc5cccnc5c4O)c4ccc(O)cc4)C3SC2)s1 (some centres unmarked) [Example 152]	–	–	–	–	–	–	–	–
3.13 µg/mL (≈ 4.31 µM)	0.78 µg/mL (≈ 1.07 µM)	6.25 µg/mL (≈ 8.6 µM)	6.25 µg/mL (≈ 8.6 µM)	6.25 µg/mL (≈ 8.6 µM)	0.39 µg/mL (≈ 0.537 µM)	3.13 µg/mL (≈ 4.31 µM)	25 µg/mL (≈ 34.4 µM)	CSc1ccc2ncc(C(=O)N[C@@H](C(=O)NC3C(=O)N4C(C(=O)O)=C(CSc5nnc(CN)s5)CSC34)c3ccc(O)cc3)c(O)c2n1 (some centres unmarked) [Example 153]	–	–	–	–	–	–	–	–
6.25 µg/mL (≈ 9.61 µM)	0.78 µg/mL (≈ 1.2 µM)	3.13 µg/mL (≈ 4.81 µM)	6.25 µg/mL (≈ 9.61 µM)	12.5 µg/mL (≈ 19.2 µM)	0.39 µg/mL (≈ 0.599 µM)	3.13 µg/mL (≈ 4.81 µM)	12.5 µg/mL (≈ 19.2 µM)	Cn1nnnc1SCC1=C(C(=O)O)N2C(=O)C(NC(=O)[C@H](NC(=O)c3cnc4cncnc4c3O)c3ccc(O)cc3)C2SC1 (some centres unmarked) [Example 154]	–	–	–	–	–	–	–	–
6.25 µg/mL (≈ 9.15 µM)	0.78 µg/mL (≈ 1.14 µM)	3.13 µg/mL (≈ 4.58 µM)	6.25 µg/mL (≈ 9.15 µM)	12.5 µg/mL (≈ 18.3 µM)	0.78 µg/mL (≈ 1.14 µM)	3.13 µg/mL (≈ 4.58 µM)	12.5 µg/mL (≈ 18.3 µM)	O=C(O)C1=C(CSc2nnc(CO)s2)CSC2C(NC(=O)C(NC(=O)c3cnc4cncnc4c3O)c3cccc(O)c3)C(=O)N12 (centres unmarked) [Example 155]	–	–	–	–	–	–	–	–
